# Assay results from ChEMBL document CHEMBL4265905, “Synthesis and biological evaluation of novel Jiyuan Oridonin A-1,2,3-triazole-azole derivatives as antiproliferative agents” (Eur J Med Chem, 2018).
# Calls of active or inactive are those of the source. The calls are words filed in the database; no cut-off is given here.
# Tests used:
# [1] = tested on: PC-3; assay: Antiproliferative activity against human PC3 cells after 72 hrs by MTT assay; assay type: functional, cell-based; conditions: PC-3, 72 h
# [2] = species: Homo sapiens; assay: Inhibition of Wnt signaling pathway in human SMMC7721 cells assessed as reduction in beta-catenin expression level up to 2 uM after 48 hrs by Western blot analysis; assay type: cell-based
# [3] = tested on: SMMC-7721; assay: Induction of apoptosis in human SMMC7721 cells assessed as viable cells at 0.5 uM after 12 hrs by Annexin V-FITC/PI staining based flow cytometry (reference value: 95.4%); assay type: functional; conditions: SMMC-7721, 12 h, read-out: Activity
# [4] = tested on: SMMC-7721; assay: Inhibition of cell migration in human SMMC7721 cells after 24 hrs by wound healing based inverted microscopic analysis; assay type: functional
# [5] = species: Homo sapiens; assay: Inhibition of Wnt signaling pathway in human SMMC7721 cells assessed as increase in APC expression level up to 2 uM after 48 hrs by Western blot analysis; assay type: cell-based
# [6] = tested on: SMMC-7721; assay: Induction of apoptosis in human SMMC7721 cells assessed as late apoptotic cells at 0.5 uM after 12 hrs by Annexin V-FITC/PI staining based flow cytometry (reference value: 0.9%); assay type: functional
# [7] = species: Homo sapiens; assay: Inhibition of Wnt signaling pathway in human SMMC7721 cells assessed as increase in GSK3beta phosphorylation level up to 2 uM after 48 hrs by Western blot analysis; assay type: cell-based
# [8] = tested on: SMMC-7721; assay: Induction of apoptosis in human SMMC7721 cells assessed as viable cells at 1 uM after 12 hrs by Annexin V-FITC/PI staining based flow cytometry (reference value: 95.4%); assay type: functional; conditions: SMMC-7721, 12 h, read-out: Activity
# [9] = tested on: SMMC-7721; assay: Cell cycle arrest in human SMMC7721 cells assessed as accumulation at G1 phase at 2 uM after 12 hrs by propidium iodide staining based flow cytometry (reference value: 39.51%); assay type: functional
# [10] = tested on: SMMC-7721; assay: Cell cycle arrest in human SMMC7721 cells assessed as accumulation at G2 phase at 1 uM after 12 hrs by propidium iodide staining based flow cytometry (reference value: 18.97%); assay type: functional
# [11] = tested on: SMMC-7721; assay: Cell cycle arrest in human SMMC7721 cells assessed as accumulation at G2 phase at 4 uM after 12 hrs by propidium iodide staining based flow cytometry (reference value: 18.97%); assay type: functional
# [12] = tested on: SMMC-7721; assay: Induction of apoptosis in human SMMC7721 cells assessed as viable cells at 2 uM after 12 hrs by Annexin V-FITC/PI staining based flow cytometry (reference value: 95.4%); assay type: functional; conditions: SMMC-7721, 12 h, read-out: Activity
# [13] = tested on: SMMC-7721; assay: Induction of apoptosis in human SMMC7721 cells assessed as late apoptotic cells at 1 uM after 12 hrs by Annexin V-FITC/PI staining based flow cytometry (reference value: 0.9%); assay type: functional
# [14] = tested on: SMMC-7721; assay: Cell cycle arrest in human SMMC7721 cells assessed as accumulation at G1 phase at 4 uM after 12 hrs by propidium iodide staining based flow cytometry (reference value: 39.51%); assay type: functional
# [15] = tested on: ECa-109 cell line; assay: Antiproliferative activity against human ECA109 cells after 72 hrs by MTT assay; assay type: functional, cell-based; conditions: ECa-109, 72 h
# [16] = tested on: SMMC-7721; assay: Cell cycle arrest in human SMMC7721 cells assessed as accumulation at S phase at 1 uM after 12 hrs by propidium iodide staining based flow cytometry (reference value: 36.98%); assay type: functional
# [17] = tested on: A549; assay: Antiproliferative activity against human A549 cells after 72 hrs by MTT assay; assay type: functional, cell-based; conditions: A549, 72 h
# [18] = tested on: SMMC-7721; assay: Cell cycle arrest in human SMMC7721 cells assessed as accumulation at G2 phase at 2 uM after 12 hrs by propidium iodide staining based flow cytometry (reference value: 18.97%); assay type: functional
# [19] = tested on: SMMC-7721; assay: Induction of apoptosis in human SMMC7721 cells assessed as necrotic cells at 0.5 uM after 12 hrs by Annexin V-FITC/PI staining based flow cytometry (reference value: 0.8%); assay type: functional
# [20] = tested on: MGC-803; assay: Antiproliferative activity against human MGC803 cells after 72 hrs by MTT assay; assay type: functional, cell-based; conditions: MGC-803, 72 h
# [21] = tested on: SMMC-7721; assay: Inhibition of colony formation in human SMMC7721 cells assessed as colony formation efficiency at 2 uM after two weeks by crystal violet staining based assay; assay type: functional; parameters: scale not given: the % may be the effect or the level left
# [22] = species: Homo sapiens; assay: Inhibition of Wnt signaling pathway in human SMMC7721 cells assessed as reduction in Dvl2 expression level up to 2 uM after 48 hrs by Western blot analysis; assay type: cell-based
# [23] = tested on: SMMC-7721; assay: Cell cycle arrest in human SMMC7721 cells assessed as accumulation at S phase at 2 uM after 12 hrs by propidium iodide staining based flow cytometry (reference value: 36.98%); assay type: functional
# [24] = tested on: SMMC-7721; assay: Inhibition of colony formation in human SMMC7721 cells after two weeks by crystal violet staining based assay; assay type: functional, cell-based
# [25] = tested on: SMMC-7721; assay: Induction of apoptosis in human SMMC7721 cells assessed as necrotic cells at 1 uM after 12 hrs by Annexin V-FITC/PI staining based flow cytometry (reference value: 0.8%); assay type: functional
# [26] = tested on: SMMC-7721; assay: Antiproliferative activity against human SMMC7721 cells after 72 hrs by MTT assay; assay type: functional, cell-based; conditions: SMMC-7721, 72 h
# [27] = tested on: SMMC-7721; assay: Cell cycle arrest in human SMMC7721 cells assessed as accumulation at S phase at 4 uM after 12 hrs by propidium iodide staining based flow cytometry (reference value: 36.98%); assay type: functional
# [28] = tested on: SMMC-7721; assay: Induction of apoptosis in human SMMC7721 cells assessed as late apoptotic cells at 2 uM after 12 hrs by Annexin V-FITC/PI staining based flow cytometry (reference value: 0.9%); assay type: functional
# [29] = tested on: SMMC-7721; assay: Cell cycle arrest in human SMMC7721 cells assessed as accumulation at G1 phase at 1 uM after 12 hrs by propidium iodide staining based flow cytometry (reference value: 39.51%); assay type: functional
# [30] = tested on: SMMC-7721; assay: Induction of apoptosis in human SMMC7721 cells assessed as early apoptotic cells at 2 uM after 12 hrs by Annexin V-FITC/PI staining based flow cytometry (reference value: 2.8%); assay type: functional
# [31] = tested on: L02; assay: Cytotoxicity against human HL7702 cells up to 72 hrs by MTT assay; assay type: cell-based; conditions: L02, 72 h
# [32] = tested on: SMMC-7721; assay: Induction of apoptosis in human SMMC7721 cells assessed as early apoptotic cells at 0.5 uM after 12 hrs by Annexin V-FITC/PI staining based flow cytometry (reference value: 2.8%); assay type: functional
# [33] = tested on: SMMC-7721; assay: Induction of apoptosis in human SMMC7721 cells assessed as early apoptotic cells at 1 uM after 12 hrs by Annexin V-FITC/PI staining based flow cytometry (reference value: 2.8%); assay type: functional
# [34] = tested on: MCF7; assay: Antiproliferative activity against human MCF7 cells after 72 hrs by MTT assay; assay type: functional, cell-based; conditions: MCF7, 72 h
# [35] = tested on: SMMC-7721; assay: Induction of apoptosis in human SMMC7721 cells assessed as necrotic cells at 2 uM after 12 hrs by Annexin V-FITC/PI staining based flow cytometry (reference value: 0.8%); assay type: functional
structure (smiles),measurement,setting,value
C=C1C(=O)[C@]23[C@H](O)[C@H]1C[C@H](O)[C@H]2[C@]12CCCC(C)(C)[C@H]1C[C@H]3O[C@@H]2OCCCn1cc(CN2C(=O)S/C(=C/C)C2=O)nn1,IC50,[1],5 µM
same,inhibition,[2],Active
same,viability at 0.5 µM,[3],86.2%
same,inhibition,[4],Dose-dependent effect
same,inhibition,[5],Active
same,Activity,[6],5.4%
same,inhibition,[7],Active
same,viability at 1 µM,[8],79.3%
same,Activity,[9],54.97%
same,Activity,[10],37.61%
same,Activity,[11],3.97%
same,viability at 2 µM,[12],68.2%
same,Activity,[13],5.8%
same,Activity,[14],75.69%
same,IC50,[15],2.7 µM
same,Activity,[16],13.84%
same,IC50,[17],3.5 µM
same,Activity,[18],26.8%
same,Activity,[19],1.1%
same,IC50,[20],0.6 µM
same,Activity,[21],5.7%
same,inhibition,[22],Active
same,Activity,[23],12.93%
same,inhibition,[24],Dose-dependent effect
same,Activity,[25],1.2%
same,IC50,[26],0.2 µM
same,Activity,[27],22.27%
same,Activity,[28],2.5%
same,Activity,[29],45.85%
same,Activity,[30],29.2%
same,IC50,[31],18.1 µM
same,Activity,[32],7.2%
same,Activity,[33],13.7%
same,IC50,[34],1.5 µM
same,Activity,[35],0.1%
